Measurements from patent US20260015341A1, “PI3K INHIBITOR, PREPARATION METHOD THEREFOR, AND USE THEREOF” (HINOVA PHARMACEUTICALS INC., priority 2022, published 2026).

What was measured:
[1] = Pharmacokinetics in beagle dogs; format: in vivo; conditions: beagle dog
Experimental: Experimental Example 5: The Pharmacokinetics of the Compound According to the Present Invention in Beagle Dogs
(§1) 9 healthy adult male beagle dogs (three for each administration route of each compound) were fasted overnight (>12 h) before gavage, with free access to water; 4 hours after administration, rats could take food, and were administered via tail vein injection and gastric lavage, respectively. At different time points, forelimb venous blood sample was collected and anti-coagulated, wherein the anticoagulant was EDTA-K2 (the sample was placed in an ice bath after blood collection). The plasma was separated by centrifugation at 3200 g for 10 min, and stored at −70° C. for testing. The plasma concentration of compounds was determined by LC-MS/MS method.
(§2) The plasma concentration of compound at all time points was used to calculate the main pharmacokinetic parameters with Winnolin 8.3 non-compartmental model.
(§3) The area under the concentration-time curve AUCall value: calculated using the trapezoidal method; AUCinf=AUCall+Ct/ke, Ct is the plasma concentration at the last measurable time point, and ke is the elimination rate constant;
(§4) The clearance rate CL=D/AUCinf (D is the administration dosage);
The volume of distribution at steady state Vss=CL×MRT. The mean retention time MRT=AUMC/AUC;

[2] = test system: T47D cells; experiment: Inhibitory effects on the proliferation of T47D cells (CellTiter-Glo); format: cell-based; conditions: Homo sapiens, 168 h, 7 days
Experimental: Experimental Example 3: Experiment of Inhibitory Effects on the Proliferation of T47D Cells
T47D cells (ATCC. #HTB-133) were diluted with RPMI 1640 (Gibco #22400-089) containing 10% FBS (Hyclone #SH30084.03), seeded in 96-well plate (Biosharp #BS-MP-96W) at 1000 cells/well, and then cultured for 24 h. Then, gradiently diluted compounds were added (starting at a final concentration of 10 μM, 3-fold dilution, 9 dose concentrations), and the final volume was adjusted to 150 μL/well. The plate was incubated at 37° C. under […] for 7 days. After the cultivation was completed, CellTiter-Glo reagent (Promega #G7573) was added at 75 μL/well, and then the plate was further incubated at 25° C. for 10 min. After that, the chemiluminescence value was read using an instrument.
The results are shown in the T47D IC50 column in Table 2.

[3] = test system: MCF-10A cells; experiment: Inhibitory effects on the proliferation of MCF-10A cells (CCK8); format: cell-based; conditions: Homo sapiens, 144 h, 6 days
Experimental: Experimental Example 2: Experiment of Inhibitory Effects on the Proliferation of MCF-10A Cells
MCF-10A cells (Cobioer Bio. #CBP60419MCF) were diluted with complete medium (Cobioer Bio. #CBP60419), seeded in 96-well plate (Corning #3599) at 500 cells/well, and then cultured for 24 h. Then, gradiently diluted compounds were added (starting at a final concentration of 10 μM, 3-fold dilution, 9 dose concentrations), and the final volume was adjusted to 100 μL/well. The plate was incubated at 37° C. under 5% CO2 for 6 days. After the cultivation was completed, CCK8 reagent (Signalway Antibody Bio. #CP002) was added at 10 μL/well, and then the plate was further incubated at 37° C. under 5% CO2 for 2-3 hours. The OD450 nm value was obtained by a microplate reader.
The results are shown in the MCF-OA IC50 column in Table 2.

[4] = Pharmacokinetics in rats; format: in vivo, SD rats; conditions: rat; for AUC / half-life / clearance / Vd: male, SD, plasma; for Vd: read-out: VSS
Experimental: Experimental Example 4: The Pharmacokinetics of the Compound According to the Present Invention in Rats
as §1, with “SD rats” for “beagle dogs”, “intravenous” for “forelimb venous”, “4° C. and 6000” for “3200”, “5” for “10”
as §2, §3
The elimination half life t1/2=0.693/ke;
as §4
The volume of distribution at steady state Vss=CL×MRT, The mean retention time MRT=AUMC/AUC;

[5] = male, plasma, po, ig (intragastric), 3 mg/kg
[6] = male, plasma, po, ig (intragastric), 10 mg/kg
[7] = iv (tail vein injection), 1 mg/kg

Row | F ([1]; ig (intragastric), 3 mg/kg) [%] | F ([1]; ig (intragastric), 10 mg/kg) [%] | AUC [1, 5] [ng·h/mL] | half-life [1, 5] [h] | AUC [1, 6] [ng·h/mL] | half-life [1, 6] [h] | AUC ([1]; male, plasma, iv, 1 mg/kg) [ng·h/mL] | clearance ([1]; male, plasma, iv, 1 mg/kg) [mL/min/kg] | half-life ([1]; male, plasma, iv, 1 mg/kg) [h] | Vd ([1]; male, plasma, iv, 1 mg/kg, read-out: VSS) [L/kg] | IC50 [2] [µM] | AUC ([4]; po, ig (intragastric), 3 mg/kg) [ng·h/mL] | half-life ([4]; po, ig (intragastric), 3 mg/kg) [h] | AUC [4, 7] [ng·h/mL] | clearance [4, 7] [mL/min/kg] | half-life [4, 7] [h] | Vd [4, 7] [L/kg] | F ([4]; ig (intragastric), 3 mg/kg) [%] | Compound | IC50 [3] [µM]
1 | 27.1 | 24.9 | 760 | 2.13 | 2370 | 4.19 | 954 | 17.4 | 2.1 | 0.828 | < 1 | 3430 | 1.34 | 1000 | 16.3 | 2.95 | 1.71 | 79.6 | Cc1cc([C@@H](C)Nc2ccc(Cl)nc2C(=O)O)c2nc(-c3ccc(F)cc3)n(C)c(=O)c2c1 [Compound 65] | > 5
2 | – | – | – | – | – | – | – | – | – | – | > 5 | 2360 | 3.83 | 978 | 17.5 | 3.79 | 2.14 | 80.3 | Cc1cc([C@@H](C)Nc2ccc(Cl)nc2C(=O)O)c2nc(-c3ccccc3)n(C)c(=O)c2c1 [Compound 115] | > 5
